# Test results reported in PubChem BioAssay (NCI).
# “And” between values parts separate entries of the source, which are not always exact repeats. Equal entries are not always repeated.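 Each compound was tested at five concentrations against cells in 96-well plates for 48 hours. The concentration for 50% growth inhibition is given as GI50. TGI: concentration producing complete growth inhibition.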
# Assays:
# Assay in all cases: growth of human tumour cells (NCI), 48 h
# SK-MEL-2 melanoma = system: SK-MEL-2 melanoma
# 786-0 renal = system: 786-0 renal
# SF-268 CNS = system: SF-268 CNS
# HOP-62 NSCLC = system: HOP-62 NSCLC
# MALME-3M melanoma = system: MALME-3M melanoma
# HCC-2998 colon = system: HCC-2998 colon
# OVCAR-4 ovarian = system: OVCAR-4 ovarian
# HT29 colon = system: HT29 colon
# SN12C renal = system: SN12C renal
# UACC-257 melanoma = system: UACC-257 melanoma
SMILES,GI50 (SK-MEL-2 melanoma) [µM],TGI (SK-MEL-2 melanoma) [µM],GI50 (786-0 renal) [µM],TGI (786-0 renal),GI50 (SF-268 CNS) [µM],TGI (SF-268 CNS),GI50 (HOP-62 NSCLC) [µM],TGI (HOP-62 NSCLC) [µM],GI50 (MALME-3M melanoma) [µM],TGI (MALME-3M melanoma) [µM],GI50 (HCC-2998 colon) [µM],TGI (HCC-2998 colon) [µM],GI50 (OVCAR-4 ovarian) [µM],TGI (OVCAR-4 ovarian),GI50 (HT29 colon) [µM],TGI (HT29 colon) [µM],GI50 (SN12C renal) [µM],TGI (SN12C renal),TGI (UACC-257 melanoma),GI50 (UACC-257 melanoma) [µM]
Cc1cc2c(cc1Cl)SC(N(c1ccccc1Cl)S(=O)(=O)c1ccc(Br)s1)=NS2(=O)=O,12.8,43.7,30,> 100 µM,12.7,30.7 µM,37.5,> 100,13.8,39.4,19.7,53.4,18.1,76.8 µM,19.9,41.6,19.5,48.7 µM,–,–
NC(Cc1ccccc1)C(=O)OCN1C(=O)C2C3C=CC(C2C1=O)C1C2C(=O)N(COC(=O)C(N)Cc4ccccc4)C(=O)C2C31 (stereo not given),–,–,–,38.2 µM and 38 µM,–,48.3 µM and 41.6 µM,–,> 100,–,–,55.4,> 100,–,34 µM and 44.5 µM,–,> 100,–,52.7 µM and 43.9 µM,67.1 µM and 50.1 µM,–
O=C(O)C1C2C=CC(O2)C1C(=O)NCc1cccnc1 (stereo not given),–,> 100,–,> 100 µM,–,> 100 µM,–,> 100,–,> 100,–,–,–,> 100 µM,–,> 100,–,> 100 µM,> 100 µM,–
COc1ccc(C(c2ccccc2C(=O)O)c2ccc(OC)c3ccccc23)c2ccccc12,–,–,–,30.5 µM,–,–,–,30.2,–,27.9,–,19.8,–,25.6 µM,–,27.5,–,29.7 µM,24.5 µM,–
COc1ccccc1-n1cnc(N)c1C(=O)c1cc(OC)c(OC)c(OC)c1,–,–,5.41,> 100 µM,4.44,> 100 µM,37.4,> 100,4.33,> 100,6.8,> 100,6.5,> 100 µM,3.41,> 100,5.65,> 100 µM,–,–
CCOC(=O)C1(CC(=O)O)CCCC1=O (stereo not given),–,> 100,–,> 100 µM,–,> 100 µM,–,> 100,–,> 100,–,–,–,> 100 µM,–,> 100,–,> 100 µM,> 100 µM,–
COc1ccc2[nH]c(Cl)c(/C=C3/C(=O)Nc4ccccc43)c2c1,1.2,> 30.8,0.282,0.937 µM,0.939,36.5 µM,0.523,1.27,0.643,2.26,–,–,1.13,14.3 µM,0.316,–,0.339,14.7 µM,11.2 µM,0.984
C/C(=N\Nc1ccccc1)c1sc(-c2nc(C)c(/C(C)=N/Nc3ccccc3)s2)nc1C,–,> 100,–,> 83.1 µM,–,> 64.6 µM,–,–,–,51,–,19.9,–,> 100 µM,–,26.2,–,> 100 µM,> 70.4 µM,–
O=C1NC(=O)C(C(=O)C(=O)Nc2cc(Cl)ccc2Cl)C(=O)N1,–,> 100,–,> 100 µM,–,> 100 µM,–,> 100,–,> 100,–,> 100,–,> 100 µM,–,–,–,–,> 100 µM,–
Nc1cn(C2OC(CC(c3ccccc3)(c3ccccc3)c3ccccc3)C(O)C2O)c(=O)[nH]c1=O (stereo not given),–,> 100,–,59.1 µM,–,> 100 µM,–,63.1,–,55.7,–,64.4,–,–,–,58.8,–,49.4 µM,52.3 µM,–
O/N=C1/CCCC/C1=C/C=C/c1ccccc1,–,36.6,–,55 µM,–,47.1 µM,–,–,–,41,–,45.2,–,> 100 µM,–,32.9,–,33.4 µM,64 µM,–
C/C=C1/CN2CCC34C(=C(C(=O)OC)C1CC23)Nc1ccc(O)cc14 (stereo not given),–,> 100,–,> 100 µM,–,> 100 µM,–,–,–,> 100,–,> 100,–,> 100 µM,–,> 100,–,> 100 µM,> 100 µM,–
CCOC(=O)/C(=C/CC/C(C)=C/CC/C(C)=C/CCc1ccoc1)CC(=O)N1CCCCC1,2.04,4,5.29,18.8 µM,8.91,38.3 µM,4.4,19.8,2.62,7.09,3.93,14.3,–,–,–,–,3.79,14.8 µM,7.41 µM,2.29
O=C1C=CC2(CCCCCCC2=O)CC1 (stereo not given),–,–,–,> 100 µM,–,> 100 µM,–,> 100,–,> 100,–,> 100,–,> 100 µM,–,> 100,–,> 100 µM,> 100 µM,–
